{
  "source": "PubChem BioAssay (NCI)",
  "experiment_in_all_cases": "NCI tumour cell line growth inhibition, 48 h",
  "key": {"[1]": {"tested_on": "NCI-H23 lung"}, "[2]": {"tested_on": "NCI-H460 lung"}, "[3]": {"tested_on": "NCI-H522 lung"}, "[4]": {"tested_on": "NCI/ADR-RES ovarian"}, "[5]": {"tested_on": "OVCAR-3 ovarian"}, "[6]": {"tested_on": "OVCAR-4 ovarian"}, "[7]": {"tested_on": "OVCAR-5 ovarian"}, "[8]": {"tested_on": "OVCAR-8 ovarian"}, "[9]": {"tested_on": "PC-3 prostate"}, "[10]": {"tested_on": "RPMI-8226 leukemia"}, "[11]": {"tested_on": "RXF 393 renal"}, "[12]": {"tested_on": "SF-268 CNS"}, "[13]": {"tested_on": "SF-295 CNS"}, "[14]": {"tested_on": "SF-539 CNS"}, "[15]": {"tested_on": "SK-MEL-2 melanoma"}, "[16]": {"tested_on": "SK-MEL-28 melanoma"}, "[17]": {"tested_on": "SK-MEL-5 melanoma"}, "[18]": {"tested_on": "SK-OV-3 ovarian"}, "[19]": {"tested_on": "SN12C renal"}, "[20]": {"tested_on": "SNB-19 CNS"}, "[21]": {"tested_on": "SNB-75 CNS"}, "[22]": {"tested_on": "SR leukemia"}, "[23]": {"tested_on": "SW-620 colon"}, "[24]": {"tested_on": "T-47D breast"}, "[25]": {"tested_on": "TK-10 renal"}, "[26]": {"tested_on": "U251 CNS"}, "[27]": {"tested_on": "UACC-257 melanoma"}, "[28]": {"tested_on": "UACC-62 melanoma"}, "[29]": {"tested_on": "UO-31 renal"}},
  "note": "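Test compounds were applied to cells in 96-well plates for 48 hours at 5 doses. Abbreviation: GI50, concentration required for 50% inhibition of growth. The concentration for full growth arrest is given as TGI.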",
  "data": [
    {"smiles": "CSc1ccc(/C(=N/N=C(N)N)c2ccc(Cl)cc2)cc1", "values": [
      {"measurement": "GI50", "setting": "[1]", "result": 0.617, "unit": "µM"},
      {"measurement": "TGI", "setting": "[1]", "result": 12, "unit": "µM"},
      {"measurement": "GI50", "setting": "[2]", "result": 0.376, "unit": "µM"},
      {"measurement": "TGI", "setting": "[2]", "result": 1.51, "unit": "µM"},
      {"measurement": "GI50", "setting": "[3]", "result": 0.213, "unit": "µM"},
      {"measurement": "TGI", "setting": "[3]", "result": 0.516, "unit": "µM"},
      {"measurement": "GI50", "setting": "[4]", "result": 0.748, "unit": "µM"},
      {"measurement": "TGI", "setting": "[4]", "result": 2.87, "unit": "µM"},
      {"measurement": "GI50", "setting": "[5]", "result": 0.5, "unit": "µM"},
      {"measurement": "TGI", "setting": "[5]", "result": 4.13, "unit": "µM"},
      {"measurement": "GI50", "setting": "[6]", "result": 1.55, "unit": "µM"},
      {"measurement": "TGI", "setting": "[6]", "result": 13.2, "unit": "µM"},
      {"measurement": "GI50", "setting": "[7]", "result": 0.496, "unit": "µM"},
      {"measurement": "TGI", "setting": "[7]", "result": 7.27, "unit": "µM"},
      {"measurement": "GI50", "setting": "[8]", "result": 0.607, "unit": "µM"},
      {"measurement": "TGI", "setting": "[8]", "result": 3.87, "unit": "µM"},
      {"measurement": "GI50", "setting": "[9]", "result": 0.447, "unit": "µM"},
      {"measurement": "TGI", "setting": "[9]", "result": 5.22, "unit": "µM"},
      {"measurement": "GI50", "setting": "[10]", "result": 0.456, "unit": "µM"},
      {"measurement": "TGI", "setting": "[10]", "result": 3.13, "unit": "µM"},
      {"measurement": "GI50", "setting": "[11]", "result": 0.509, "unit": "µM"},
      {"measurement": "TGI", "setting": "[11]", "result": 2.14, "unit": "µM"},
      {"measurement": "GI50", "setting": "[12]", "result": 1.06, "unit": "µM"},
      {"measurement": "TGI", "setting": "[12]", "result": 6.63, "unit": "µM"},
      {"measurement": "GI50", "setting": "[13]", "result": 0.368, "unit": "µM"},
      {"measurement": "TGI", "setting": "[13]", "result": 1.57, "unit": "µM"},
      {"measurement": "GI50", "setting": "[14]", "result": 0.291, "unit": "µM"},
      {"measurement": "TGI", "setting": "[14]", "result": 0.935, "unit": "µM"},
      {"measurement": "GI50", "setting": "[15]", "result": 0.473, "unit": "µM"},
      {"measurement": "TGI", "setting": "[15]", "result": 3.84, "unit": "µM"},
      {"measurement": "GI50", "setting": "[16]", "result": 0.957, "unit": "µM"},
      {"measurement": "TGI", "setting": "[16]", "result": 2.35, "unit": "µM"},
      {"measurement": "GI50", "setting": "[17]", "result": 0.949, "unit": "µM"},
      {"measurement": "TGI", "setting": "[17]", "result": 2.16, "unit": "µM"},
      {"measurement": "GI50", "setting": "[18]", "result": 0.593, "unit": "µM"},
      {"measurement": "TGI", "setting": "[18]", "result": 14.3, "unit": "µM"},
      {"measurement": "GI50", "setting": "[19]", "result": 0.5, "unit": "µM"},
      {"measurement": "TGI", "setting": "[19]", "result": 2.21, "unit": "µM"},
      {"measurement": "GI50", "setting": "[20]", "result": 0.696, "unit": "µM"},
      {"measurement": "TGI", "setting": "[20]", "result": 14.2, "unit": "µM"},
      {"measurement": "GI50", "setting": "[21]", "result": 0.38, "unit": "µM"},
      {"measurement": "TGI", "setting": "[21]", "result": 4.14, "unit": "µM"},
      {"measurement": "GI50", "setting": "[22]", "result": 0.349, "unit": "µM"},
      {"measurement": "TGI", "setting": "[22]", "result": 2.3, "unit": "µM"},
      {"measurement": "GI50", "setting": "[23]", "result": 0.48, "unit": "µM"},
      {"measurement": "TGI", "setting": "[23]", "result": 1.96, "unit": "µM"},
      {"measurement": "GI50", "setting": "[24]", "result": 0.558, "unit": "µM"},
      {"measurement": "TGI", "setting": "[24]", "result": 4.94, "unit": "µM"},
      {"measurement": "GI50", "setting": "[25]", "result": 2.83, "unit": "µM"},
      {"measurement": "TGI", "setting": "[25]", "result": 12.6, "unit": "µM"},
      {"measurement": "GI50", "setting": "[26]", "result": 0.382, "unit": "µM"},
      {"measurement": "TGI", "setting": "[26]", "result": 2.17, "unit": "µM"},
      {"measurement": "GI50", "setting": "[27]", "result": 0.891, "unit": "µM"},
      {"measurement": "TGI", "setting": "[27]", "result": 2.52, "unit": "µM"},
      {"measurement": "GI50", "setting": "[28]", "result": 0.707, "unit": "µM"},
      {"measurement": "TGI", "setting": "[28]", "result": 2.42, "unit": "µM"},
      {"measurement": "GI50", "setting": "[29]", "result": 1, "unit": "µM"},
      {"measurement": "TGI", "setting": "[29]", "result": 4.03, "unit": "µM"}
    ]}
  ]
}
